Patent US7632848B1, “Medical treatment of muscles by exposure to anesthetic drugs” (priority 2007, dated 2009)

How the values were obtained:
[1] = system: eye muscle (lateral rectus muscle); type: in vivo, human
Source text: In one embodiment, an eye muscle is selected for treatment. For an eye that is esotropic (turned inward or crossed), the physician will want to strengthen the lateral rectus muscle, which acts to pull the eye outward into better alignment. The surface of the eye is anesthetized with eye drops. A syringe is filled with up to 5.0 cc of bupivacaine, enough to fill the muscle and reach all the muscle fibers. The concentration of the bupivacaine solution is from 0.5% to 3.0%. The volume and concentration are varied depending on the amount of strengthening effect required. The syringe is attached to an injection needle insulated on its shaft. Therefore, the muscle electrical activity is picked up only with the exposed tip of the needle. The needle is attached to a wire leading to an electromyographic (EMG) recorder. A second wire leads to a ground attached to the skin of the patient's body. The eye is moved to a position at which the lateral rectus muscle to be treated is activated electrically as well as physically contracted. As the tip of the needle approaches the muscle area, the electrical activity is picked up and amplified by the EMG recorder as sound. The sound gets louder as the needle tip gets closer to and finally within the muscle. The needle is advanced behind the eye to the end of the muscle, about 3 cm, keeping the needle within the muscle, guided by the amplitude of the recorded sound. This is important, as the drug will anesthetize the nerves and the muscle with injection of the first few drops, thereafter leaving no guide as to position of the needle. The drug solution is injected starting at this deepest point, with continued injection of solution as the needle is withdrawn. In order to get the maximum effect, all the fibers of the muscle must be exposed to the drug. A smaller volume and concentration are applied when a sub-maximum effect is wanted. […] (Scott, A. B., Alexander, D. E., Miller, J. M., 2007, Bupivacaine injection of eye muscles to treat strabismus. Br J. Opthalmol. 91 (2), 146-148) In one case of eye muscle injection, I marked the solution with a contrast agent to show the exact location of the injected drug. […] All the same, the muscle became larger and stronger. This teaches that exposure of the fibers can also be effected by injecting around the muscle to bathe it. All the muscle fibers must be exposed to the drug to provide the maximal effect. Reducing exposure of the muscle fibers to the drug by reducing the volume of solution injected or by using a lower concentration of drug can be expected to provide a lesser effect. […]

skeletal muscle fibers = settings: in vivo; cited from earlier work
[2] = system: extensor digitorum longus muscle; settings: rat hind limb, sufficient concentration and volume; cited from earlier work

In the case of CCCCN1CCCCC1C(=O)Nc1c(C)cccc1C (stereo not drawn) [bupivacaine], the “duration of muscle inactivity from the anesthetic effect” value ([1]; eye muscle injection, up to 5.0 cc, 0.5% to 3.0%) is reported as “inactive for a day”, the “eye position and movement after recovery” value ([1]; eye muscle injection, as the muscle enlarges and strengthens) is reported as “typically improve” and the “recovery from the myotoxic effect” value ([1]; in vivo) is reported as “gradually recovers from the myotoxic effect of the drug over the next week”. The “effect on muscle size and strength” value ([1]; muscle fibers exposed to adequate concentration and volume of drug) was “enlarge and become stronger”, the “toxicity to muscle fibers” value (skeletal muscle fibers) was “irreversible breakdown of the muscle fibers” and the “muscle size after injection” value [2] was “enlargement of the muscle beyond its original size”.
